Measurements taken from patent US11384113B2, “Cobalamin derivatives and their use for the treatment of diseases caused by lack of vitamin B12 supply” (Albert-Ludwigs-Universitaet Freiburg, priority 2017, dated 2022).
Positions count from the first letter of the chain named. Like-named read-outs stand apart in the source and are kept apart here.

Legend:
[1] = pH 7.72, l = 0.5, KNO3; cited from earlier work
[2] = Concentration-dependent reaction rate of aquacobalamin with thiol ligand forming thiolatocobalamin (time-resolved UV-visible spectroscopy); format: physicochemical; conditions: pH 7.2, l = 1, sodium triflate
Protocol: The UV-visible spectra of newly synthesized cobalamin derivatives was determined in EPPS buffer (40 mM, pH 7.6, l=1.0 M with sodium triflate). The reaction of aquacobalamin with cysteamine and mercaptopropionylglycine was monitored by time-resolved spectral scanning of reactions containing a fixed amount of aquacobalamin (10-25 μM (micromolar)) and various concentrations of the ligand.
Mercaptopropionylglycine reacted readily with aquacobalamin to form a stable MPGCbl complex at pH 7.2.
A fixed concentration of aquacobalamin was reacted with varying concentrations of the ligand MPG. The reaction was monitored by time-resolved UV-visible spectroscopy for a total of 50 minutes (FIG. 5). The spectral changes were consistent with the conversion of aquacobalamin into MPGCbl (FIG. 5 a) via a mechanism that involves no detectable reaction intermediates. Initial and final spectra are analyzed to confirm the identity of the thiolatocobalamin product (FIG. 5 b). Time courses were generated at the absorption maxima of each species (350 nm, H2OCbl^+, and 372 nm, MPGCbl) (FIG. 5 c).

[3] = molecular target: T1, human recombinant CblC pathogenic mutant Arg161Gly (Homo sapiens, UniProt Q9Y4U1, R161G); format: biochemical; conditions: for Half-life of beta-axial ligand removal, Mutant Arg161Gly: human, pH 7.6
T1 sequence (Q9Y4U1 1-282 R161G): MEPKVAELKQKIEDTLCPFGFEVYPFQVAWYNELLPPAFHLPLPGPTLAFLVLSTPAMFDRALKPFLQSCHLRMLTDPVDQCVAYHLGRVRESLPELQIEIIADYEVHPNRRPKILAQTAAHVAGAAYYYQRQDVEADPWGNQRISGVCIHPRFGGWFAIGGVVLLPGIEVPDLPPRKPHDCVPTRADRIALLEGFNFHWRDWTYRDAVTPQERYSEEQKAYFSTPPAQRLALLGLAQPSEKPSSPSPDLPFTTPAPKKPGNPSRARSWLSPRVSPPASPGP
Protocol: (§1) The ability of the newly synthesized Cbl derivatives to serve as substrates for CblC was examined (FIG. 12). CblC activity was measured by UV-visible spectroscopy according to published procedures. Analysis of reaction products was performed by mass spectrometry. We measured dealkylation and de-thiolation of Co—C and Co—S bonded Cbl derivatives, respectively, by wild type and mutant CblC proteins to determine whether these reactions could be supported in patients harboring an abnormal isoform of CblC with low or no enzymatic activity.
(§2) First, the ability of novel cobalamins described herein was tested to act as substrate for wild type CblC and to restore the lost activity of pathogenic variants, such as mutant Arg161Gly, that leads to early-onset form of the cblC disease.

[4] = molecular target: T2, human recombinant CblC wild type (Homo sapiens, UniProt Q9Y4U1); format: biochemical; conditions: dethiolation; 50 μM GSH
T2 sequence (Q9Y4U1 1-282): T1 sequence (Q9Y4U1 1-282 R161G) with G161R

[5] = tested on: fibroblasts from healthy subjects; assay: MMA in conditioned medium of control fibroblasts; format: cell-based, human
Text: (§3) Cultured cells from control (healthy neonatal subjects) or cblC fibroblasts were supplemented without exogenous Cbl (negative control), with commercial CNCbl (current therapy control) or with the newly synthesized cobalamins (test group). The ability of these compounds to support intracellular Cbl metabolism in the absence of CblC was examined by monitoring disease biomarker metabolites Hcy and MMA levels in the conditioned medium.
(§4) The cellular response to treatment with new derivatives CyaCbl and MPGCbl in comparison with current therapeutic form CNCbl was measured. The ability of the new cobalamin derivatives CyaCbl and MPGCbl to achieve metabolic control, i.e. reduction of for example MMA production by cblC fibroblasts in culture, was examined as described in previously published experimental protocols. FIG. 13 provides a comparison of the effect of CNCbl (0.001 mM) versus the same dose of CyaCbl or MPGCbl given to cultured fibroblasts from healthy subjects (HFF, NHDF, PCS, Wiesel, Control) or from cblC patients (WG1801, WG2176, WG3354, GM10011, GM02345B, GM02452C).
(§5) Additional examination of the effect of thiolatocobalamins CyaCbl and MPGCbl and sulfur-containing alkylcobalamin Me-S-MeCbl with respect to structural analogues that are NOT available for therapy was also carried out, for comparative purposes. The results of cellular response (healthy controls and cblC patient fibroblasts) to cobalamin treatment, as reflected by MMA levels is provided in Table 6.

human wild type CblC = molecular target: T3, human wild type CblC (Homo sapiens, UniProt Q9Y4U1); assay: Binding to CblC and conversion to base-off configuration (UV-visible spectrophotometry); conditions: pH 7.6, EPPS buffer 0.04 M
T3 sequence (Q9Y4U1 1-282): T1 sequence (Q9Y4U1 1-282 R161G) with G161R
Protocol: An important aspect for the bioactivity of the new compounds is their ability to bind to the processing enzyme CblC, and to undergo conversion to the base-off configuration, which enhances their reactivity. This is a critical step in all intracellular pathways of vitamin B12 metabolism that are involved in pathogenesis, and certainly, relevant to the cblC disease itself. […] Binding studies were conducted at pH 7.6 (EPPS buffer, 0.04 M) and analyzed by UV-visible spectrophotometry.

[6] = molecular target: T2, human recombinant CblC wild type; format: biochemical; conditions: for Half-life of beta-axial ligand removal, Wild type CblC: human, pH 7.6
Protocol: as §1
The enzymatic activity of CblC in the presence of CyaCbl and MPGCbl as substrates was evaluated under the same experimental conditions utilized to examine dealkylation of MeCbl and AdoCbl. […] The reaction was complete in less than 10 seconds, which is the time it takes to record the first spectrum after mixing of CblC-bound to CyaCbl or MPGCbl with 5 mM GSH (FIG. 12).
as §2

cultured fibroblasts = assay: Cytotoxicity and cellular transport observed in cultured fibroblast experiments; format: cell-based, human
[7] = tested on: fibroblasts isolated from patients with cblC disease; assay: MMA in conditioned medium of cblC patient fibroblasts; format: cell-based, human
Text: as §3, §4, §5

[8] = electrochemical; 20° C.; cited from earlier work
[9] = base-on to base-off equilibrium; cited from earlier work
[10] = Controls (group value), after 7 days
[11] = Controls, after 7 days wash-off period without supplemental cobalamin
[12] = HFF control fibroblasts, after 7 days
[13] = NHDF control fibroblasts, after 7 days
[14] = Wiezel control fibroblasts, after 7 days
[15] = GM02345B cblC fibroblasts, after 7 days
[16] = GM02452C cblC fibroblasts, after 7 days
[17] = GM10011 cblC fibroblasts, after 7 days
[18] = WG1801 cblC fibroblasts, after 7 days
[19] = WG2176 cblC fibroblasts, after 7 days
[20] = WG3354 cblC fibroblasts, after 7 days
[21] = cblC patients (group value), after 7 days
[22] = cblC patients, after 7 days wash-off period without supplemental cobalamin

Row | Compound | Half-life of beta-axial ligand removal, Mutant Arg161Gly [3] | MMA in conditioned medium [5, 10] | MMA in conditioned medium [5, 11] | MMA in conditioned medium [5, 12] | MMA in conditioned medium [5, 13] | MMA in conditioned medium [5, 14] | Half-life of beta-axial ligand removal, Wild type CblC [6] | MMA in conditioned medium [7, 15] | MMA in conditioned medium [7, 16] | MMA in conditioned medium [7, 17] | MMA in conditioned medium [7, 18] | MMA in conditioned medium [7, 19] | MMA in conditioned medium [7, 20] | MMA in conditioned medium [7, 21] | MMA in conditioned medium [7, 22] | also measured
1 | CC(C[S][Co+2])C(=O)N1CCCC1C(=O)O.CC1=C2N=C(C=C3N=C(C(C)=C4[N-]C(C(CC(N)=O)C4(C)CCC(=O)NCC(C)OP(=O)([O-])OC4C(CO)OC(n5cnc6cc(C)c(C)cc65)C4O)C4(C)N=C1C(CCC(N)=O)C4(C)CC(N)=O)C(CCC(N)=O)C3(C)C)C(CCC(N)=O)C2(C)CC(N)=O (stereo not shown) [CaptoprilCbl] |  |  |  |  |  |  |  |  |  |  |  |  |  |  |  | K, concentration-dependent reaction rate (formation from aquacobalamin) [1]: 24.7 M⁻¹ s⁻¹
2 | CC1=C2N=C(C=C3N=C(C(C)=C4[N-]C(C(CC(N)=O)C4(C)CCC(=O)NCC(C)OP(=O)([O-])OC4C(CO)OC(n5cnc6cc(C)c(C)cc65)C4O)C4(C)N=C1C(CCC(N)=O)C4(C)CC(N)=O)C(CCC(N)=O)C3(C)C)C(CCC(N)=O)C2(C)CC(N)=O.NCC[S][Co+2] (stereo not shown) [CyaCbl] | 2.1 min | 0.141 μmol/mg protein | 0.154 μmol/mg protein | 0.095 μmol/mg protein | 0.184 μmol/mg protein | 0.144 μmol/mg protein | <0.5 min | 0.217 μmol/mg protein | 0.369 μmol/mg protein | 0.208 μmol/mg protein | 0.194 μmol/mg protein | 0.189 μmol/mg protein | 0.114 μmol/mg protein | 0.215 μmol/mg protein | 0.190 μmol/mg protein | K, concentration-dependent reaction rate (formation from aquacobalamin) [2]: 28.66 M⁻¹ s⁻¹; Product under ambient conditions, Mutant Arg161Gly ([3]; dethiolation, 50 μM GSH): H2OCbl; Product under ambient conditions, Wild type CblC [4]: H2OCbl; Effect of binding to human wild type CblC on configuration (human wild type CblC): induces their base-off configuration; Product of the reaction ([6]; cobalamin bound to human CblC, in the presence of GSH): H2OCbl^+; Transport into the cells (cultured fibroblasts; canonical TC transporter and its cellular receptor CD320): transported successfully into the cells; Cytotoxicity (cultured fibroblasts; under the experimental conditions of the fibroblast cultures): not cytotoxic; Reduction of MMA to the levels of healthy fibroblasts, compared with CNCbl ([7]; 0.001 mM, same dose as CNCbl, FIG. 13): far superior compared to CNCbl
3 | C/C1=C2/[N-][C@H]([C@H](CC(N)=O)[C@@]2(C)CCC(=O)NC[C@H](C)OP(=O)([O-])O[C@H]2[C@@H](O)[C@@H](n3cnc4cc(C)c(C)cc43)O[C@@H]2CO)[C@]2(C)N=C(/C(C)=C3N=C(/C=C4N=C1[C@@H](CCC(N)=O)C\4(C)C)[C@@H](CCC(N)=O)[C@]\3(C)CC(N)=O)[C@@H](CCC(N)=O)[C@]2(C)CC(N)=O.[CH3-].[Co+3] [MeCbl, Methylcobalamin, reference compound] | 60 min | 0.118 μmol/mg protein | 0.131 μmol/mg protein | 0.106 μmol/mg protein | 0.152 μmol/mg protein | 0.095 μmol/mg protein | 10 min | 0.250 μmol/mg protein | 0.243 μmol/mg protein | 0.066 μmol/mg protein | 0.429 μmol/mg protein | 0.459 μmol/mg protein | 0.891 μmol/mg protein | 0.390 μmol/mg protein | 0.298 μmol/mg protein | Product under ambient conditions, Mutant Arg161Gly ([3]; dealkylation, 5 mM GSH): Cob(II)alamin; Redox potential [V] relative to NHE [8]: −1.20 V; pKa of base on/base off [9]: 2.90; Product under ambient conditions, Wild type CblC ([6]; dealkylation, 5 mM GSH): H2OCbl
